# Experimental data taken from ChEMBL document CHEMBL1201862, “PubChem BioAssay data set” (2004).
# Calls of active or inactive are those of the source.
# How the values were obtained:
# [1] = biological target: Induced myeloid leukemia cell differentiation protein Mcl-1 (Homo sapiens, UniProt Q07820); assay type: functional
# [2] = biological target: Eukaryotic translation initiation factor 4E (Mus musculus, UniProt P63073); test: blockers of eIF4G binding by eIF4E – biochemical, TR-FRET, dose response (AID 855); assay type: functional;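 also: potency for disrupting eIF4E binding to eIF4GI seen as loss of FRET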
# Sequence of Eukaryotic translation initiation factor 4E (P63073 whole entry): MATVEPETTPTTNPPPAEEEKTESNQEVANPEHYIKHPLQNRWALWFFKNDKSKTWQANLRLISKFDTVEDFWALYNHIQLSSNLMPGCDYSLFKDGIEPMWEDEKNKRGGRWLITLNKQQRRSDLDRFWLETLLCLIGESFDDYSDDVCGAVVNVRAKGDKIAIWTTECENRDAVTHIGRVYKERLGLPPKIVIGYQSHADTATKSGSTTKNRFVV
# [3] = biological target: T1, Tyrosine-protein phosphatase non-receptor type 7 (Homo sapiens, UniProt P35236); test: redox-active compounds inhibiting HePTP phosphatase – biochemical, fluorescence, mechanism study (AID 2068); assay type: functional
# T1 sequence (P35236 whole entry): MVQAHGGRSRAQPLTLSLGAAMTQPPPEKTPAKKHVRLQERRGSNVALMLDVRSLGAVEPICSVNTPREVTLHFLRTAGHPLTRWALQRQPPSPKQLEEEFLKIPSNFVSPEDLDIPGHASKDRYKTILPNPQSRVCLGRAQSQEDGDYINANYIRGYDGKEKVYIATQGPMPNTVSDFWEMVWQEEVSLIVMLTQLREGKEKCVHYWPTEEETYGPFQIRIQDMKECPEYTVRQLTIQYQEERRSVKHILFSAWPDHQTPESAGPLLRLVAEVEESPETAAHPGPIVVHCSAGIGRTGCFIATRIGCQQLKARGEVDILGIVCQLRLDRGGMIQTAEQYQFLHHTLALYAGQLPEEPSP
# [4] = biological target: T2, Glutathione-S-transferase (Schistosoma japonicum, UniProt Q26513); test: GST-antibody interaction or FRET quenching – biochemical, TR-FRET, artefact control for Vif-APOBEC3G degradation inhibitor project, dose response (AID 1117362); assay type: functional
# T2 sequence (Q26513 whole entry): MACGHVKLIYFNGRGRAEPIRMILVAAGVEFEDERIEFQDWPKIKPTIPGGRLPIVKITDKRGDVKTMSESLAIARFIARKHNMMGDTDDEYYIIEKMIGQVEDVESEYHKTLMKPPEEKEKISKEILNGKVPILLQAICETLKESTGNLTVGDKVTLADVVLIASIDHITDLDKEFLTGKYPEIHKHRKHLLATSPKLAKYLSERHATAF
# Coagulation factor XII = biological target: T3, Coagulation factor XII (Homo sapiens, UniProt P00748); test: activated coagulation factor XII inhibitor potency, concentration-effect curve, cell-free (AID 716); assay type: functional
# T3 sequence (P00748 whole entry): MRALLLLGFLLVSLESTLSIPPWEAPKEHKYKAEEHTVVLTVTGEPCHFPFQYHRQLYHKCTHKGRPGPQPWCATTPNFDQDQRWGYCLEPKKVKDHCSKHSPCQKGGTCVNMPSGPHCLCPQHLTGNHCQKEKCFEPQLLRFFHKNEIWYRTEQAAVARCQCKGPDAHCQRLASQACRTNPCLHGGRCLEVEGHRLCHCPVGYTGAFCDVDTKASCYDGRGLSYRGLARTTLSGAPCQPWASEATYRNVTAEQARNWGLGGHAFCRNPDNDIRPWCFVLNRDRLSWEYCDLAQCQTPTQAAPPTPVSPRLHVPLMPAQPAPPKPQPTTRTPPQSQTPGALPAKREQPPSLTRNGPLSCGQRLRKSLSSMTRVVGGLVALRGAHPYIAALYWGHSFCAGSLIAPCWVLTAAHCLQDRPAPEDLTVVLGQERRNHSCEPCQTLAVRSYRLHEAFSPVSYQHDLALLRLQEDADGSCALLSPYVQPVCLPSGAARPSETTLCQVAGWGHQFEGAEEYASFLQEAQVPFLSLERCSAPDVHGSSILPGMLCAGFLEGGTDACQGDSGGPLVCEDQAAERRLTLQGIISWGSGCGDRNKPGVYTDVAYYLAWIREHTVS
# Protein RecA = biological target: T4, Protein RecA (Mycobacterium tuberculosis, UniProt P9WHJ3); test: Fluorescence Cell-Free Homogeneous Dose Retest to Identify Inhibitors of RecA-Intein Splicing Activity. [Related pubchem assays (depositor defined):AID2097, AID2223, AID489010, AID492950]; assay type: functional
# T4 sequence (P9WHJ3 whole entry): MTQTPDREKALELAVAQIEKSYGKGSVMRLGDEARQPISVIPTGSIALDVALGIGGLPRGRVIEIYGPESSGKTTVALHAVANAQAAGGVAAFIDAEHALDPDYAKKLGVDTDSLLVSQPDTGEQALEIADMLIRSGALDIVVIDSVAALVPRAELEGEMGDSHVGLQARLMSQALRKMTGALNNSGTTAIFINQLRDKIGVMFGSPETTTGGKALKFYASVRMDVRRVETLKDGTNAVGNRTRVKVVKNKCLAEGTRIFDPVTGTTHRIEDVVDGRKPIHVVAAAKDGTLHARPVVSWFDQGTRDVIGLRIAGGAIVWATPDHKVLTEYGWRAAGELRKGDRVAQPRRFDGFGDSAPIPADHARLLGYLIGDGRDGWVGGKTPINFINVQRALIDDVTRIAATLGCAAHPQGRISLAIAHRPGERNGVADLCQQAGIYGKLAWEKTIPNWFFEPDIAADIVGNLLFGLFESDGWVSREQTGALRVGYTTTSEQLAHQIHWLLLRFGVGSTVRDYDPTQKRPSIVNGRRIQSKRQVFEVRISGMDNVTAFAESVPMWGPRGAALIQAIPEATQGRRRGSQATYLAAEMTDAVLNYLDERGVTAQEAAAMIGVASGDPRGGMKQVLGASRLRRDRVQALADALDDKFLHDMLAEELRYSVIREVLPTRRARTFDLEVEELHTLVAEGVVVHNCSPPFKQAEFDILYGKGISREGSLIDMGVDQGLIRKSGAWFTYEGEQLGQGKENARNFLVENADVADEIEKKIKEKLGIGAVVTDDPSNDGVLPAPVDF
# Cytochrome P450 3A4 = Cytochrome P450 3A4 (Homo sapiens, UniProt P08684);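 also: CYP3A4 tested as one member of a cytochrome P450 panel screen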
# Sequence of Cytochrome P450 3A4 (P08684 whole entry): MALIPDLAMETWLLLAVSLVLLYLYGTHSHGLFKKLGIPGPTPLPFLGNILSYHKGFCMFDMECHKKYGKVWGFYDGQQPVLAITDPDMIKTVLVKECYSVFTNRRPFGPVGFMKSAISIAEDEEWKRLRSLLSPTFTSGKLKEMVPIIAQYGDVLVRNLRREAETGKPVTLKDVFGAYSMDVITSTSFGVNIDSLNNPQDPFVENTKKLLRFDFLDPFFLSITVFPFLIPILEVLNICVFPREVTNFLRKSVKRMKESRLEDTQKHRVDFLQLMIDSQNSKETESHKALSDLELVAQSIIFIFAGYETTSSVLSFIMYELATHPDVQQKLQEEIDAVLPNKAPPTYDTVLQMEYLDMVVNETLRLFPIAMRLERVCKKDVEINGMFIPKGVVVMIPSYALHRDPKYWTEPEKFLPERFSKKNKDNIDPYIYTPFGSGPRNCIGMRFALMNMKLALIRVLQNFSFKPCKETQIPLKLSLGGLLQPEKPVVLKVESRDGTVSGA
# [5] = biological target: T5, Replicative DNA helicase DnaB (Mycobacterium tuberculosis, UniProt P9WMR3); test: DnaB intein splicing inhibitors, dose response, biochemical, cell-free fluorescence (AID 449749); assay type: functional
# T5 sequence (P9WMR3 whole entry): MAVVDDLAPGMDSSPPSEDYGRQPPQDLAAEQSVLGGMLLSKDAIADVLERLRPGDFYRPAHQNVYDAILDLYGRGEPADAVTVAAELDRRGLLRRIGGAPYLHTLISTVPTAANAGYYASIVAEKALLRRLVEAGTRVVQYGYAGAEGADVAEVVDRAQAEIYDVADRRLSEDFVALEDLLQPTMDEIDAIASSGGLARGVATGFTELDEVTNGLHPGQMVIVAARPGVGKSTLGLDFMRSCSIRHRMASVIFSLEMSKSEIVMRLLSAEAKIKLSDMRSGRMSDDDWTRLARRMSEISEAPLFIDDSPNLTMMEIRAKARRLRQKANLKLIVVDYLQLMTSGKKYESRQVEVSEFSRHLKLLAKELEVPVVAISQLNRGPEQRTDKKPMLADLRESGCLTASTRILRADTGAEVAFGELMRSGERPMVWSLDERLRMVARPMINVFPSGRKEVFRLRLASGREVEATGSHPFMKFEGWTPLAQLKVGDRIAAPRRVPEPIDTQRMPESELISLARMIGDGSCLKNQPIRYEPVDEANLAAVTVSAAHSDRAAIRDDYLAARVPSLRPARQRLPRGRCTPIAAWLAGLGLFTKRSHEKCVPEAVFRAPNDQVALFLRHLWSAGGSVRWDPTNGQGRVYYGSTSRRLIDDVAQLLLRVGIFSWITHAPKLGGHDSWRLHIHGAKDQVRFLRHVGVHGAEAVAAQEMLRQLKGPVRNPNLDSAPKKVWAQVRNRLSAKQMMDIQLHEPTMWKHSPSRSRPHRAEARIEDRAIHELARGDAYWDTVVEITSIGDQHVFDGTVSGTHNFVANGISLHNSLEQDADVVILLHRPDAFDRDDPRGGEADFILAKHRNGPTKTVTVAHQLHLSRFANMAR
# Cytochrome P450 2C19 = Cytochrome P450 2C19 (Homo sapiens, UniProt P33261); test: Cytochrome panel assay with activity outcomes. Panel member name: p450-cyp2c19 Compounds with AC50 equal or less than 10 uM are considered active; assay type: functional; conditions: read-out: AC50
# Sequence of Cytochrome P450 2C19 (P33261 whole entry): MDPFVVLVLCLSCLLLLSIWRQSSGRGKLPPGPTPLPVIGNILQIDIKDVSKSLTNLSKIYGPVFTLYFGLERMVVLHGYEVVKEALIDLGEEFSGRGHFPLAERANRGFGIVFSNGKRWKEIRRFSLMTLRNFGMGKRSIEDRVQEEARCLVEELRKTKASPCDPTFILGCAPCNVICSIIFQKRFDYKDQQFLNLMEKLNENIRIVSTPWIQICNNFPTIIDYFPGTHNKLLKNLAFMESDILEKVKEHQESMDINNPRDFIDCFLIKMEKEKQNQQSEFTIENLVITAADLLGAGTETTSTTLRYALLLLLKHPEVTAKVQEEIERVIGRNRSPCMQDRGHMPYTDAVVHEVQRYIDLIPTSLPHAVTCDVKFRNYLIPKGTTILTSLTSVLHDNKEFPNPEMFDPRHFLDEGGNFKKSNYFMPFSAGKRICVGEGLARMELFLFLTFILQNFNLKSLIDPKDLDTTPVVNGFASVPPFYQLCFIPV
# Cytochrome P450 2D6 = Cytochrome P450 2D6 (Homo sapiens, UniProt P10635);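 also: CYP2D6 member of a cytochrome P450 panel assay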
# Sequence of Cytochrome P450 2D6 (P10635 whole entry): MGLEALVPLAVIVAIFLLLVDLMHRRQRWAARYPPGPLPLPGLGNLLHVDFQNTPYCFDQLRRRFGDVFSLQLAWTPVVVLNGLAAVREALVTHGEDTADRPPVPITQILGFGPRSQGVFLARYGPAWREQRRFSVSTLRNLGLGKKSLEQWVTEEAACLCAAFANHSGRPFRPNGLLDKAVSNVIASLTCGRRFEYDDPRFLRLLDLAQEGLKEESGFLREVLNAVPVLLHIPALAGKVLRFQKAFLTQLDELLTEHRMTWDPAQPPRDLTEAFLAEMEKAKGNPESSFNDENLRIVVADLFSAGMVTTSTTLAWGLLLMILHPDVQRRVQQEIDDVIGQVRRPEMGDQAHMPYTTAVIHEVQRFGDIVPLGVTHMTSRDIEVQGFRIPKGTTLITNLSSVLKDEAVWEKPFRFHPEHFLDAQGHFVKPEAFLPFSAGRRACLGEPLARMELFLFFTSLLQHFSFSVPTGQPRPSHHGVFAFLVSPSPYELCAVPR
# Bcl-2-like protein 10 = Bcl-2-like protein 10 (Homo sapiens, UniProt Q9HD36); test: Bcl-B/TR3 peptide binding disruption – biochemical, fluorescence polarization, FITC-TR3 peptide, selectivity assay for Bfl-1 inhibitor project, primary screen (AID 748);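 also: fluorescence polarization from a fluorescein-labelled TR3 peptide binding purified Bcl-B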
# Sequence of Bcl-2-like protein 10 (Q9HD36 whole entry): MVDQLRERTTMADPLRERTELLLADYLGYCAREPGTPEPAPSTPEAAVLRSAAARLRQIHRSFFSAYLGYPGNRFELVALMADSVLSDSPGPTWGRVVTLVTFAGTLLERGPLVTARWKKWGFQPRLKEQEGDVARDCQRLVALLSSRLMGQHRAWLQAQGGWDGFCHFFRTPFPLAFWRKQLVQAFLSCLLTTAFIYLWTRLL
# Sequence of Induced myeloid leukemia cell differentiation protein Mcl-1 (Q07820 whole entry): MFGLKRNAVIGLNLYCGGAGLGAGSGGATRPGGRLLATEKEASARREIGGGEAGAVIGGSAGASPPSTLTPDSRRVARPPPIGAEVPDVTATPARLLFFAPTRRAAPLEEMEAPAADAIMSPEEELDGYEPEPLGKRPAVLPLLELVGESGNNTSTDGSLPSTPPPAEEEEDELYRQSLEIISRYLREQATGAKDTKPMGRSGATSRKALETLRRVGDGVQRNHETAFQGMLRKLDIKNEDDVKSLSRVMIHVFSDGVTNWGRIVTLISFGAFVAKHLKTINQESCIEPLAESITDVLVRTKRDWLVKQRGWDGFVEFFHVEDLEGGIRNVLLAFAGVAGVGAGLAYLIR
structure (smiles),measurement,setting,value
O=C(NCCO)Nc1ccc2nc(-c3ccco3)c(-c3ccco3)nc2c1,IC50,[1],0.579 µM (active)
same,IC50,[2],50 µM (inactive)
same,IC50,[3],0.476 µM (active)
same,IC50,[4],48.5 µM (active)
COCCn1c(SCC(N)=O)nnc1-c1c[nH]c2ccccc12,IC50,Coagulation factor XII,> 50 µM (inactive)
Cc1cnnn1-c1ccc(C(=O)CCl)cc1,EC50,Protein RecA,11.3 µM (active)
same,AC50,Cytochrome P450 3A4,25.1 µM (inconclusive)
same,AC50,[5],29.1 µM (active)
same,AC50,Cytochrome P450 2C19,39.8 µM (inconclusive)
same,AC50,Cytochrome P450 2D6,0.0794 µM (inconclusive)
same,IC50,Bcl-2-like protein 10,> 50 µM (inactive)
